How the values were obtained:
DGAT = assay: Assay for inhibitory activity against DGAT ([14C]triacylglycerol formation, rat microsomal protein); type: biochemical; conditions: rat microsomal protein as enzyme source
Source text: The derivatives of Chemical Formula 1 in accordance with the present invention are found to inhibit the enzymatic activity of DGAT at a dose-dependent manner (refer to Table 2 and FIG. 1) as measured in a test in which [^14C]triacylglycerol was quantitatively analyzed after enzymatic reaction between 1,2-diacylglycerol and [^14C]palmitoyl-CoA, with microsomal proteins from rats serving as an enzyme source (refer to Example 1).
After enzymatic reaction between two substrates 1,2-diacylglycerol (Sigma, D0138) and [^14C]palmitoyl-CoA (Amersham, CFA583) with the microsomal protein of rat serving as an enzyme source in accordance with Coleman et al, Methods Enzymol., 98-103, 1992, the resulting product [^14C] triacylglycerol was measured for radioactivity. In detail, to a reaction buffer (175 mM Tris-HCl, pH 8.0, 20 μl bovine serum albumin (10 mg/ml), 100 mM MgCl2, 30 μM [^14C] palmitoyl-CoA (0.02 μCi, Amersham) and 200 μM 1,2-dioleoyl glycerol) was added 10 μl of a solution of the samples in dimethylsulfoxide (DMSO) and then 100˜200 μl of an isolated microsomal protein, followed by reaction at 25° C. for 10 min. The reaction was terminated with 1.5 ml of a mixture of 80:20:2 2-propanol:heptane:water (v:v:v). Thereafter, the [^14C] triacylglycerol thus formed was separated. In this regard, 1 ml of heptane and 0.5 ml of distilled water were added to the reaction mixture, which was then shaken. 1 ml of the supernatant thus formed was mixed with 2 ml of an alkaline ethanol solution (ethanol:0.5 N sodium hydroxide:water=50:10:40, v:v:v), followed by shaking. After being taken, 0.65 ml of the supernatant thus formed was measured for radioactivity using an LSC (liquid scintillation counter). The inhibitory activity against DGAT was calculated according to the following Mathematical Formula 1. The inhibitory effects of the benzazole derivatives on DGAT are summarized in Table 2, below while % DGAT inhibition is plotted against doses of compound 22 and 31 in FIG. 1.
T: Cpm of a test group in which a sample was added to an enzymatic buffer,
C: Cpm of a control in which no samples were added to an enzymatic buffer,
B: Cpm of a control in which a sample was added in the absence of any enzyme source.

ICR mice = assay: Acute toxicity, oral administration for two weeks, mice; type: in vivo; conditions: oral 100 and 250 mg/kg for two weeks
Experimental: (§1) An assay of the benzazole derivatives of Chemical Formula 1 in accordance with the present invention was performed for acute toxicity on mice (20±5 g, Central Lab. Animal Inc.) and rats (235±10 g, Central Lab. Animal Inc.).
(§2) For this, ICR mice and Sprague-Dawley rats were assigned to 4 groups of 10 and orally administered with Compound 22 in doses of 100 and 250 mg/kg for two weeks.

Sprague-Dawley rats = assay: Acute toxicity, oral administration for two weeks, rats; type: in vivo; conditions: oral 100 and 250 mg/kg for two weeks
Experimental: as §1, §2

Which “DGAT (% inhibition in 5 μM)” value (DGAT; 5 μM) does the source give for `O=C(NCc1ccco1)c1ccc2oc(COc3ccc(C45CC6CC(CC(C6)C4)C5)cc3)nc2c1` [Cpd. 22, 2-(4-adamantan-1-yl-phenoxymethyl)-benzoxazole-5-carboxylic acid (furan-2-ylmethyl)-amide] here?
Its value is 42.8%.

And the “DGAT (% inhibition in 25 μM)” value (DGAT; 25 μM)?
The value was 78.03%.

What about the apparent symptoms (ICR mice) of the same compound?
Its apparent symptoms is “no apparent symptoms different from the control”.

What about the apparent symptoms (Sprague-Dawley rats) of the same compound?
Its apparent symptoms is “no apparent symptoms different from the control”.
